# According to patent publication US9493396B2, “Substituted naphthalene compounds as calcium sensing receptor modulators” (LUPIN ATLANTIS HOLDINGS SA, priority 2013, dated 2016):
# pEC50: −log10 of the molar value. Where a name gives a salt, the structure may show the parent alone.
# Biological target: T1, Calcium sensing receptor (hCaSR) (Homo sapiens, UniProt P41180)
# T1 construct: expressed in transfected cells; host or cells: HEK293 (stably transfected)
# T1 sequence (P41180 20-1078): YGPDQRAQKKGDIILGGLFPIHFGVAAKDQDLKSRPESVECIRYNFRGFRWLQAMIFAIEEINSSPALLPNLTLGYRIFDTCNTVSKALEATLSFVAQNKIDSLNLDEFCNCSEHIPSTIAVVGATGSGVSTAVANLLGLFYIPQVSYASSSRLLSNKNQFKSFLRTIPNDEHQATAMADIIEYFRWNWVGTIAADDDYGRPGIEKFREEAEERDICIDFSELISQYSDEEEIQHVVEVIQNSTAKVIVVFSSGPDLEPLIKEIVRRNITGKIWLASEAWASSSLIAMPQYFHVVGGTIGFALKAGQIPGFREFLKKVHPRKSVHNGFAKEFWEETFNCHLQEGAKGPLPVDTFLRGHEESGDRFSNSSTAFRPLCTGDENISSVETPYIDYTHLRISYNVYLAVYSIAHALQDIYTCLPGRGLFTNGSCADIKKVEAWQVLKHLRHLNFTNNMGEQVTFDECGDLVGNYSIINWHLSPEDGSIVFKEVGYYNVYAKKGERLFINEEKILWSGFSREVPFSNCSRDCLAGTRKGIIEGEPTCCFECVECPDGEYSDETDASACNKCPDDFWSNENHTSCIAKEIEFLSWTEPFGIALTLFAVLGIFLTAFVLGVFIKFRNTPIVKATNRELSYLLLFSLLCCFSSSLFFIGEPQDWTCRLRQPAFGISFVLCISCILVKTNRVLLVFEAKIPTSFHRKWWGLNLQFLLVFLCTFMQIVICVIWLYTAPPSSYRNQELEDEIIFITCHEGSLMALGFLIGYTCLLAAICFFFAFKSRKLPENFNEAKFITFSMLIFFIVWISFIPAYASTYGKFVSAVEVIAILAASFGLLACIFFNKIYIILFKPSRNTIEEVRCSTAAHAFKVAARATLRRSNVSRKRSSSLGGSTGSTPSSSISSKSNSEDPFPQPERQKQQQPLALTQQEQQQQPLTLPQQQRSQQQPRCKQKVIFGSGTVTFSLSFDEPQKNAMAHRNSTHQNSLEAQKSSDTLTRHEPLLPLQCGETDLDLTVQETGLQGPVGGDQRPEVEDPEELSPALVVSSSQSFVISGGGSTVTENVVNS
# Test: In-vitro assay of calcimimetics through modulation of calcium sensing receptor (intracellular calcium increase, FLIPR)
# Type: cell-based
# Details: stably transfected HEK293 cells expressing hCaSR; Fluo4NW dye; 0.3 mM CaCl2; 8-point assay; read-out: EC50 in range
# How it was run: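 Stably transfected HEK293 cells expressing hCaSR, loaded 30 min with Fluo4NW dye. Intracellular calcium rise measured on FLIPR in 20 mM HEPES buffer with 0.3 mM CaCl2. EC50 derived from 8-point concentration series.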
row,SMILES,pEC50
1,"C[C@@H](NCc1cc(-c2ccc(C(F)(F)F)cc2)c2ccccc2c1)c1cccc2ccccc12 [Example 1, (R)-1-(Naphthalen-1-yl)-N-((4-(4-(trifluoromethyl)phenyl)naphthalen-2-yl)methyl)ethanamine hydrochloride]",> 7.70
2,"COc1cccc([C@@H](C)NC(C)c2cc(-c3ccc(C(=O)O)cc3F)c3ccccc3c2)c1 (stereo partly drawn) [Example 120, 3-Fluoro-4-(3-(1-(((R)-1-(3-methoxyphenyl)ethyl)amino)ethyl)naphthalen-1-yl)benzoic acid hydrochloride]",> 7.70
3,"COc1cc(F)cc(C(C)NC(C)c2cc(-c3ccc(C(F)(F)F)cc3)c3ccccc3c2)c1 (single isomer, unassigned) [Example 163b, 1-(3-Fluoro-5-methoxyphenyl)-N-(1-(4-(4-(trifluoromethyl)phenyl)naphthalen-2-yl)ethyl)ethanamine hydrochloride]",7.30 to 7.70
4,"COC(=O)c1cc(-c2cc(CN[C@H](C)c3cccc(OC)c3)cc3ccccc23)ccc1C [Example 155, (R)-Methyl 5-(3-(((1-(3-methoxyphenyl)ethyl)amino)methyl)naphthalen-1-yl)-2-methylbenzoate hydrochloride]",> 7.70
5,"CCC(N[C@H](C)c1cccc(OC)c1)c1cc(-c2ccc(C(F)(F)F)cc2)c2ccccc2c1 (single isomer, unassigned) [Example 18a, hydrochloride]",> 7.70
6,"COc1cccc([C@@H](C)NC(C)c2cc(-c3ccc(F)cc3)c3ccccc3c2)c1 (mixture of isomers) [Example 15, 1-(4-(4-Fluorophenyl)naphthalen-2-yl)-N-((R)-1-(3-methoxyphenyl)ethyl)ethanamine hydrochloride]",> 7.70
7,"COc1cccc([C@@H](C)NC(C)c2cc(-c3ccc(Cl)c(C(=O)O)c3)c3ccccc3c2)c1 (stereo partly drawn) [Example 133, 2-Chloro-5-(3-(1-(((R)-1-(3-methoxyphenyl)ethyl)amino)ethyl)naphthalen-1-yl)benzoic acid hydrochloride]",> 7.70
8,"CC(N[C@H](C)c1cccc(Cl)c1)c1cc(-c2ccc(S(C)(=O)=O)cc2)c2ccccc2c1 (stereo partly drawn) [Example 159, (1R)-1-(3-Chlorophenyl)-N-(1-(4-(4-(methylsulfonyl)phenyl)naphthalen-2-yl)ethyl)ethanamine hydrochloride]",6.40 to 7.30
9,"CCOc1cccc([C@@H](C)NC(CC)c2cc(-c3ccc(F)c(CCC(=O)O)c3)c3ccccc3c2)c1 (stereo partly drawn) [Example 141, 3-(5-(3-(1-(((R)-1-(3-Ethoxyphenyl)ethyl)amino)propyl)naphthalen-1-yl)-2-fluorophenyl) propanoic acid hydrochloride]",7.30 to 7.70
10,"CC(N[C@H](C)c1cccc2ccccc12)c1cc(-c2ccc(C(F)(F)F)cc2)c2ccccc2c1 (single isomer, unassigned) [Example 9b, hydrochloride]",> 7.70
11,"CCOc1cccc([C@@H](C)NC(C)c2cc(-c3ccc(F)c(C(=O)O)c3)c3ccccc3c2)c1 (stereo partly drawn) [Example 126, 5-(3-(1-(((R)-1-(3-Ethoxyphenyl)ethyl)amino)ethyl)naphthalen-1-yl)-2-fluorobenzoic acid hydrochloride]",> 7.70
12,"COc1cccc([C@@H](C)NC(C)c2cc(-c3cc(F)cc(OC(C)(C)C(=O)O)c3)c3ccccc3c2)c1 (stereo partly drawn) [Example 151, 2-(3-Fluoro-5-(3-(1-(((R)-1-(3-methoxyphenyl)ethyl)amino)ethyl)naphthalen-1-yl)phenoxy)-2-methylpropanoic acid hydrochloride]",6.40 to 7.30
13,"COc1cccc([C@@H](C)NC(C)c2cc(-c3ccc(C)c(CCC(=O)O)c3)c3ccccc3c2)c1 (stereo partly drawn) [Example 137, 3-(5-(3-(1-(((R)-1-(3-Methoxyphenyl)ethyl)amino)ethyl)naphthalen-1-yl)-2-methylphenyl) propanoic acid hydrochloride]",> 7.70
14,"COc1cc([C@@H](C)NCc2cc(-c3ccc(F)c(C(=O)O)c3)c3ccccc3c2)ccc1F [Example 96, (R)-2-Fluoro-5-(3-(((1-(4-fluoro-3-methoxyphenyl)ethyl)amino)methyl)naphthalen-1-yl)benzoic acid hydrochloride]",6.40 to 7.30
15,"COc1cccc([C@@H](C)NC(C)c2cc(-c3ccc(C(=O)O)c(F)c3)c3ccccc3c2)c1 (stereo partly drawn) [Example 132, 2-Fluoro-4-(3-(1-(((R)-1-(3-methoxyphenyl)ethyl)amino)ethyl)naphthalen-1-yl)benzoic acid hydrochloride]",6.40 to 7.30

# Now from value to molecule:
row,pEC50,SMILES
1,> 7.70,"COc1cccc([C@@H](C)NC(C)c2cc(-c3cccc(CCC(=O)O)c3F)c3ccccc3c2)c1 (stereo partly drawn) [Example 129, 3-(2-Fluoro-3-(3-(1-(((R)-1-(3-methoxyphenyl)ethyl)amino)ethyl)naphthalen-1-yl)phenyl)propanoic acid hydrochloride]"
2,> 7.70,"COc1cccc([C@@H](C)NC(C)c2cc(-c3ccc(C(F)(F)F)cc3)c3ccccc3c2)c1 (stereo partly drawn) [Example 6, (R)-1-(3-Methoxyphenyl)-N-(1-(4-(4-(trifluoromethyl)phenyl)naphthalen-2-yl)ethyl)ethanamine hydrochloride]"
3,> 7.70,"CCOc1cccc([C@@H](C)NC(C)c2cc(-c3ccc(F)c(CCC(=O)O)c3)c3ccccc3c2)c1 (stereo partly drawn) [Example 142, 3-(5-(3-(1-(((R)-1-(3-Ethoxyphenyl)ethyl)amino)ethyl)naphthalen-1-yl)-2-fluorophenyl) propanoic acid hydrochloride]"
4,> 7.70,"CCOc1cccc([C@@H](C)NC(C)c2cc(-c3cc(F)cc(CCC(=O)O)c3)c3ccccc3c2)c1 (stereo partly drawn) [Example 158, 3-(3-(3-(1-(((R)-1-(3-Ethoxyphenyl)ethyl)amino)ethyl)naphthalen-1-yl)-5-fluorophenyl) propanoic acid hydrochloride]"
5,> 7.70,"CC(N[C@H](C)c1cccc(Cl)c1)c1cc(-c2ccc(F)cc2)c2ccccc2c1 (stereo partly drawn) [Example 16, (1R)-1-(3-Chlorophenyl)-N-(1-(4-(4-fluorophenyl)naphthalen-2-yl)ethyl)ethanamine hydrochloride]"
6,6.40 to 7.30,"C[C@@H](NCc1cc(-c2ccc(C(=O)O)cc2)c2ccccc2c1)c1cccc2ccccc12 [Example 106, (R)-4-(3-(((1-(Naphthalen-1-yl)ethyl)amino)methyl)naphthalen-1-yl)benzoic acid hydrochloride]"
7,> 7.70,"CCOc1cccc([C@@H](C)NCc2cc(-c3ccc(C)c(C(=O)O)c3)c3ccccc3c2)c1 [Example 91, hydrochloride]"
8,6.40 to 7.30,"COc1cc(C(=O)O)cc(-c2cc(C(C)N[C@H](C)c3cccc(OC)c3)cc3ccccc23)c1 (stereo partly drawn) [Example 150, 3-Methoxy-5-(3-(1-(((R)-1-(3-methoxyphenyl)ethyl)amino)ethyl)naphthalen-1-yl)benzoic acid hydrochloride]"
9,> 7.70,"COc1cccc([C@@H](C)NC(C)c2cc(-c3cc(F)cc(C(=O)O)c3)c3ccccc3c2)c1 (stereo partly drawn) [Example 118, 3-Fluoro-5-(3-(1-(((R)-1-(3-methoxyphenyl)ethyl)amino)ethyl)naphthalen-1-yl)benzoic acid hydrochloride]"
10,7.30 to 7.70,"COc1cccc([C@@H](C)NC(C)c2cc(-c3ccc(C(=O)O)c(C(F)(F)F)c3)c3ccccc3c2)c1 (stereo partly drawn) [Example 124, 4-(3-(1-(((R)-1-(3-Methoxyphenyl)ethyl)amino)ethyl)naphthalen-1-yl)-2-(trifluoromethyl) benzoic acid hydrochloride]"
11,> 7.70,"CCOc1cccc([C@@H](C)NC(C)c2cc(-c3ccc(C(F)(F)F)cc3)c3ccccc3c2)c1 (stereo partly drawn) [Example 12, (1R)-1-(3-Ethoxyphenyl)-N-(1-(4-(4-(trifluoromethyl)phenyl)naphthalen-2-yl)ethyl)ethanamine hydrochloride]"
12,7.30 to 7.70,"COc1cccc([C@@H](C)NCCCc2cc(-c3ccc(C(F)(F)F)cc3)c3ccccc3c2)c1 [Example 5, (R)-N-(1-(3-Methoxyphenyl)ethyl)-3-(4-(4-(trifluoromethyl)phenyl)naphthalen-2-yl)propan-1-amine hydrochloride]"
13,> 7.70,"CC(N[C@H](C)c1cccc(F)c1)c1cc(-c2ccc(C(F)(F)F)cc2)c2ccccc2c1 (stereo partly drawn) [Example 13, (1R)-1-(3-Fluorophenyl)-N-(1-(4-(4-(trifluoromethyl)phenyl)naphthalen-2-yl)ethyl)ethanamine hydrochloride]"
